In ChEMBL document CHEMBL5046278, “Synthesis and Evaluation of Novel Tetrahydronaphthyridine CXCR4 Antagonists with Improved Drug-like Profiles” (J Med Chem, 2022):

Experiments:
[1] = Metabolic stability in human liver microsomes assessed compound remaining measured after 10 mins in presence of NADPH; assay type: ADME, Microsome; details: read-out: Stability
[2] = Cmax in mouse at 30 mg/kg, po measured after 8 hrs by LC-MS/MS analysis; assay type: ADME, organism-based; parameters: route oral, dose 30 mg/kg, time 8 hrs; details: in vivo
[3] = Antagonist activity at human CXCR4 receptor expressed in CCRF-CEM cells assessed as inhibition of CXCL12-induced calcium release by calcium flux assay; assay type: cell-based
[4] = Permeability of compound at pH 7.4 incubated for 4 hrs by PAMPA assay; assay type: ADME; details: read-out: permeability
[5] = Metabolic stability in rat liver microsomes assessed compound remaining measured after 10 mins in presence of NADPH; assay type: ADME, Microsome; details: read-out: Stability
[6] = Cytotoxicity against human TZM-bl cells assessed as reduction in cell viability incubated for 4 hrs by […] assay; assay type: toxicity, cell-based; details: read-out: TC50
[7] = test system: Human immunodeficiency virus 1; assay: Antiviral activity against HIV-1 Z1800M E4.02 (R5) pseudovirus infected in human TZM-blcells assessed as reduction in viral infectivity measured after 48 hrs of postinfection by luminescence assay; assay type: functional, organism-based; details: Human immunodeficiency virus 1, Z1800M E4.02 (R5), TZM-bl
Mu-type opioid receptor = Mu-type opioid receptor (Homo sapiens, UniProt P35372); assay: Inhibition of mu opioid receptor (unknown origin)
[8] = molecular target: Kappa-type opioid receptor (Homo sapiens, UniProt P41145); assay: Inhibition of kappa opioid receptor (unknown origin)
D(2) dopamine receptor = D(2) dopamine receptor (Homo sapiens, UniProt P14416); assay: Inhibition of dopamine D2 receptor (unknown origin)
[9] = molecular target: T1, Muscarinic acetylcholine receptor M2 (Homo sapiens, UniProt P08172); assay: Inhibition of M2 mAChR receptor (unknown origin)
T1 sequence (P08172 whole entry): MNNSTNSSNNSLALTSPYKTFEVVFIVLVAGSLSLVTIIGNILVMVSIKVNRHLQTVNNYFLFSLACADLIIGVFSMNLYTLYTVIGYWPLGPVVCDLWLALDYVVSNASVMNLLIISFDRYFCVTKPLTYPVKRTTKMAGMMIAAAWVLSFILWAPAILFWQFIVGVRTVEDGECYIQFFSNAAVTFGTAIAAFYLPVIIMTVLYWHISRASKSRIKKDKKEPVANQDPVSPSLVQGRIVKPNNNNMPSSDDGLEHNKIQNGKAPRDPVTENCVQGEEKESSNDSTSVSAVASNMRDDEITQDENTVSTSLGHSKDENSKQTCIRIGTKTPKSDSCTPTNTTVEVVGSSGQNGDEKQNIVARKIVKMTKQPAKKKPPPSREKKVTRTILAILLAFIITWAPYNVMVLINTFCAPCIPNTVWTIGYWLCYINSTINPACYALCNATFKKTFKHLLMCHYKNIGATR

[10] = molecular target: Neuronal acetylcholine receptor subunit alpha-7 (Homo sapiens, UniProt P36544); assay: Inhibition of alpha7 nicotinic acetylcholine receptor (unknown origin)
[11] = molecular target: Voltage-gated inwardly rectifying potassium channel KCNH2 (Homo sapiens, UniProt Q12809); assay: Inhibition of human ERG by [3H]]Astemizole binding assay; assay type: toxicity
[12] = Cmax in mouse at 3 mg/kg, po measured after 8 hrs by LC-MS/MS analysis; assay type: ADME, organism-based; parameters: route oral, time 8 hrs, dose 3 mg/kg; details: in vivo
[13] = Drug concentration in mouse plasma at 30 mg/kg, po measured at 12 hrs by LC-MS analysis; assay type: ADME, organism-based
[14] = Oral bioavailability in mouse at 3 mg/kg measured at 24 hrs by LC-MS/MS analysis; assay type: ADME, organism-based; details: in vivo
Cytochrome P450 2C19 = Cytochrome P450 2C19 (Homo sapiens, UniProt P33261); assay: Inhibition of CYP2C19 (unknown origin); assay type: ADME
Cytochrome P450 2C9 = Cytochrome P450 2C9 (Homo sapiens, UniProt P11712); assay: Inhibition of CYP2C9 (unknown origin); assay type: ADME
[15] = Therapeutic index, ratio of TC50 for human TZM-bl cells to IC50 for antiviral activity against HIV-1 NL4-3 (X4) pseudovirus infected in human TZM-bl cells assessed as reduction in viral infectivity; assay type: toxicity, cell-based
Homo sapiens [16] = species on record: Homo sapiens; assay: Selectivity index, ratio of IC50 for antagonist activity at mAChR (unknown origin) to IC50 for antagonist activity at human CXCR4 receptor
[17] = molecular target: C-X-C chemokine receptor type 1 (Homo sapiens) (UniProt P25024); assay: Inhibition of human CXCR1 at 10 uM relative to control
[18] = molecular target: C-X-C chemokine receptor type 2 (Homo sapiens) (UniProt P25025); assay: Inhibition of human CXCR2 at 10 uM relative to control
[19] = molecular target: C-C chemokine receptor type 4 (Homo sapiens) (UniProt P51679); assay: Inhibition of human CCR4 at 10 uM relative to control
[20] = molecular target: C-C chemokine receptor type 5 (Homo sapiens) (UniProt P51681); assay: Inhibition of human CCR5 at 10 uM relative to control
[21] = molecular target: C-C chemokine receptor type 6 (Homo sapiens) (UniProt P51684); assay: Inhibition of human CCR6 at 10 uM relative to control
[22] = molecular target: C-C chemokine receptor type 7 (Homo sapiens) (UniProt P32248); assay: Inhibition of human CCR7 at 10 uM relative to control
Homo sapiens [23] = species on record: Homo sapiens; assay: Selectivity index, ratio of IC50 for inhibition of alpha 2A adrenergic receptor (unknown origin) to IC50 for antagonist activity at human CXCR4 receptor expressed in CCRF-CEM cells; assay type: cell-based
Homo sapiens [24] = species on record: Homo sapiens; assay: Selectivity index, ratio of IC50 for inhibition of dopamine D2 receptor (unknown origin) to IC50 for antagonist activity at human CXCR4 receptor expressed in CCRF-CEM cells; assay type: cell-based
Homo sapiens [25] = species on record: Homo sapiens; assay: Selectivity index, ratio of IC50 for inhibition of M2 mAChR receptor (unknown origin) to IC50 for antagonist activity at human CXCR4 receptor expressed in CCRF-CEM cells; assay type: cell-based
Homo sapiens [26] = species on record: Homo sapiens; assay: Selectivity index, ratio of IC50 for inhibition of hERG receptor (unknown origin) to IC50 for antagonist activity at human CXCR4 receptor expressed in CCRF-CEM cells; assay type: cell-based
Homo sapiens [27] = species on record: Homo sapiens; assay: Selectivity index, ratio of IC50 for inhibition of recombinant human CYP2D6 to IC50 for antagonist activity at human CXCR4 receptor expressed in CCRF-CEM cells; assay type: cell-based
Homo sapiens [28] = species on record: Homo sapiens; assay: Selectivity index, ratio of IC50 for inhibition of recombinant human CYP1A2 to IC50 for antagonist activity at human CXCR4 receptor expressed in CCRF-CEM cells; assay type: cell-based
Homo sapiens [29] = species on record: Homo sapiens; assay: Selectivity index, ratio of IC50 for inhibition of recombinant human CYP2C19 (unknown origin) to IC50 for antagonist activity at human CXCR4 receptor expressed in CCRF-CEM cells; assay type: cell-based
Homo sapiens [30] = species on record: Homo sapiens; assay: Selectivity index, ratio of IC50 for inhibition of recombinant human CYP2C9 to IC50 for antagonist activity at human CXCR4 receptor expressed in CCRF-CEM cells; assay type: cell-based

Sequence of C-X-C chemokine receptor type 1 (Homo sapiens) (P25024 whole entry): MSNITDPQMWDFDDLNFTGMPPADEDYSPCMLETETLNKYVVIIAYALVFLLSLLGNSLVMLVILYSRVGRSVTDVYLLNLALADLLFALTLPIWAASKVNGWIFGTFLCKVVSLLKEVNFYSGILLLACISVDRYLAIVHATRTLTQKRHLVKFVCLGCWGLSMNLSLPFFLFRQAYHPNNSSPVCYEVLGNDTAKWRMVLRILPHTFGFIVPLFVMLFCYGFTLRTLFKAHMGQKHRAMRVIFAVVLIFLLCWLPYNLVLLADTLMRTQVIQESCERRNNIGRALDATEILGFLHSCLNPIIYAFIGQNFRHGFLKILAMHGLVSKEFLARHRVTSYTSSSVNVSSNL
Sequence of Cytochrome P450 2C9 (P11712 whole entry): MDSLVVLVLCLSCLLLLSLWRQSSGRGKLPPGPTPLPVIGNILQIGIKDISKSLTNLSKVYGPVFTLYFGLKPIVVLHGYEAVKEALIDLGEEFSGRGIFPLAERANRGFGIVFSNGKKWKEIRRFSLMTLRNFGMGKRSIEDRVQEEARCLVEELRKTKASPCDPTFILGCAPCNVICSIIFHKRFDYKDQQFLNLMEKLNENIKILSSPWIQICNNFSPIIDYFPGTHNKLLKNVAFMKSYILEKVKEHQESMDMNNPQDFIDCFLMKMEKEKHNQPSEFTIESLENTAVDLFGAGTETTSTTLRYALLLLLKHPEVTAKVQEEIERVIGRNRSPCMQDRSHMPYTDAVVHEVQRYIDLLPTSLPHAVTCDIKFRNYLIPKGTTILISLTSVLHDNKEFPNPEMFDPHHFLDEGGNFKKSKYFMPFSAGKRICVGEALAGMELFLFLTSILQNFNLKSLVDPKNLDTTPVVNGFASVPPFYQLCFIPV
Sequence of Kappa-type opioid receptor (P41145 whole entry): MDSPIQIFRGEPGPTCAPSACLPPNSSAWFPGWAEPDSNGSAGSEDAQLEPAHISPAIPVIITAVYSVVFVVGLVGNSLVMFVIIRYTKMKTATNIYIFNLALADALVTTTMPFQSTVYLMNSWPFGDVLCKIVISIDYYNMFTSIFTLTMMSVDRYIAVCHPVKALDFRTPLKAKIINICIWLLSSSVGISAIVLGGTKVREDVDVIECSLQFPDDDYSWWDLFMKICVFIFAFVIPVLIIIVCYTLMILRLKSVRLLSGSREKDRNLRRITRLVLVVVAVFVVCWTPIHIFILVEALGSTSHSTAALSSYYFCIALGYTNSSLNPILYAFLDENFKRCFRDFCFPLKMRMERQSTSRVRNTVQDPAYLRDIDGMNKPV
Sequence of Cytochrome P450 2C19 (P33261 whole entry): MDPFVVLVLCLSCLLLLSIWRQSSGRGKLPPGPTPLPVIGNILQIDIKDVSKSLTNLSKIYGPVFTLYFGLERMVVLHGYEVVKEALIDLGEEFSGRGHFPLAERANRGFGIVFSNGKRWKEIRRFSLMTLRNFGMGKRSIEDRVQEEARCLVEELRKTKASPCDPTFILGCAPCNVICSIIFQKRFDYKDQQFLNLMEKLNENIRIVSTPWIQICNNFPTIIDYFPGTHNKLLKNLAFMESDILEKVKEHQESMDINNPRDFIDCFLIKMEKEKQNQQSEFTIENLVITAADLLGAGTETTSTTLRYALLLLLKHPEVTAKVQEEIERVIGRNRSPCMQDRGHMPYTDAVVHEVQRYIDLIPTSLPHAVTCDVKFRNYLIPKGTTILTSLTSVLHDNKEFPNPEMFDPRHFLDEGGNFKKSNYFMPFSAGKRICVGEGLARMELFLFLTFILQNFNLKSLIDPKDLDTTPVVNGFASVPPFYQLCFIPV
Sequence of C-C chemokine receptor type 6 (Homo sapiens) (P51684 whole entry): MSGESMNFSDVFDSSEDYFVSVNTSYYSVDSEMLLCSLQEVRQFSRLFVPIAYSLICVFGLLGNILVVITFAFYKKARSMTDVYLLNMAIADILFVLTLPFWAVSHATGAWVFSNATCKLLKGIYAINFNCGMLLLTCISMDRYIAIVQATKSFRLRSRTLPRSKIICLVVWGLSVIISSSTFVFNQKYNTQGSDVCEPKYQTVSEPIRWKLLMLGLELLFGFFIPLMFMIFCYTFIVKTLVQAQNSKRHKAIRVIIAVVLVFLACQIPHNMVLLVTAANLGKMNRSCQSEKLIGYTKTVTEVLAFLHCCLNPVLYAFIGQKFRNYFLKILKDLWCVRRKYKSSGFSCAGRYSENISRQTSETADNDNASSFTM
Sequence of C-C chemokine receptor type 5 (Homo sapiens) (P51681 whole entry, looked up): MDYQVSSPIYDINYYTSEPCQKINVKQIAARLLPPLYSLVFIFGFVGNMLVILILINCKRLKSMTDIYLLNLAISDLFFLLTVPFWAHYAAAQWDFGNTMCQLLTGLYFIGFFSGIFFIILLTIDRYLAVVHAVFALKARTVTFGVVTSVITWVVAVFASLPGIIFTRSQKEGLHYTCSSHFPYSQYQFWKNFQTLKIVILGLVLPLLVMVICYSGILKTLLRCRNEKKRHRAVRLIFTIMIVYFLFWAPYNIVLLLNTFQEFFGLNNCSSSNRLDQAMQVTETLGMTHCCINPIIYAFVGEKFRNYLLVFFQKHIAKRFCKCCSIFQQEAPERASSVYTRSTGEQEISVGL
Sequence of Mu-type opioid receptor (P35372 whole entry): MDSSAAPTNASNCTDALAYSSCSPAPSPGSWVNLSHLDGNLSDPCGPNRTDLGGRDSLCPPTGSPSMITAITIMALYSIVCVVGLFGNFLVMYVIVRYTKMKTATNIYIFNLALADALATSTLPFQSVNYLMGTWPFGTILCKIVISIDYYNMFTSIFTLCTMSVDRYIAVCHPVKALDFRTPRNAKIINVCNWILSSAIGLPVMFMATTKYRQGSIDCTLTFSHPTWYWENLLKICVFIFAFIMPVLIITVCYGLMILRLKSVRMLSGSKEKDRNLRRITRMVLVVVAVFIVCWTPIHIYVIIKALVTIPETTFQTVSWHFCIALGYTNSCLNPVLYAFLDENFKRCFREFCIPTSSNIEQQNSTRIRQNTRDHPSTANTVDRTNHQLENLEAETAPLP
Sequence of Neuronal acetylcholine receptor subunit alpha-7 (P36544 whole entry): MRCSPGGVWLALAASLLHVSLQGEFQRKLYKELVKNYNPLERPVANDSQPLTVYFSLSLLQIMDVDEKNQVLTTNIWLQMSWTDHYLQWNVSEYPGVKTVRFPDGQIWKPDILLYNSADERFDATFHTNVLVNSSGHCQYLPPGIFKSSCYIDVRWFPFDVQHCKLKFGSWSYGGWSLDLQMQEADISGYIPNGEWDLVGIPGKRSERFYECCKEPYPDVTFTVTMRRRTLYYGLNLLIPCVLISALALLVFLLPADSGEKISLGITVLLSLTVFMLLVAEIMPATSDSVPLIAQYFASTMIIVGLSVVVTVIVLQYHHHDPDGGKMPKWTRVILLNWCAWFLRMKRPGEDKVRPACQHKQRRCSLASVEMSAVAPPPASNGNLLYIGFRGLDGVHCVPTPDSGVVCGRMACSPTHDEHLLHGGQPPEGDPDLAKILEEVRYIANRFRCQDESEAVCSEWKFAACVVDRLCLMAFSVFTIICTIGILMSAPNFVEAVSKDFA
Sequence of Voltage-gated inwardly rectifying potassium channel KCNH2 (Q12809 whole entry): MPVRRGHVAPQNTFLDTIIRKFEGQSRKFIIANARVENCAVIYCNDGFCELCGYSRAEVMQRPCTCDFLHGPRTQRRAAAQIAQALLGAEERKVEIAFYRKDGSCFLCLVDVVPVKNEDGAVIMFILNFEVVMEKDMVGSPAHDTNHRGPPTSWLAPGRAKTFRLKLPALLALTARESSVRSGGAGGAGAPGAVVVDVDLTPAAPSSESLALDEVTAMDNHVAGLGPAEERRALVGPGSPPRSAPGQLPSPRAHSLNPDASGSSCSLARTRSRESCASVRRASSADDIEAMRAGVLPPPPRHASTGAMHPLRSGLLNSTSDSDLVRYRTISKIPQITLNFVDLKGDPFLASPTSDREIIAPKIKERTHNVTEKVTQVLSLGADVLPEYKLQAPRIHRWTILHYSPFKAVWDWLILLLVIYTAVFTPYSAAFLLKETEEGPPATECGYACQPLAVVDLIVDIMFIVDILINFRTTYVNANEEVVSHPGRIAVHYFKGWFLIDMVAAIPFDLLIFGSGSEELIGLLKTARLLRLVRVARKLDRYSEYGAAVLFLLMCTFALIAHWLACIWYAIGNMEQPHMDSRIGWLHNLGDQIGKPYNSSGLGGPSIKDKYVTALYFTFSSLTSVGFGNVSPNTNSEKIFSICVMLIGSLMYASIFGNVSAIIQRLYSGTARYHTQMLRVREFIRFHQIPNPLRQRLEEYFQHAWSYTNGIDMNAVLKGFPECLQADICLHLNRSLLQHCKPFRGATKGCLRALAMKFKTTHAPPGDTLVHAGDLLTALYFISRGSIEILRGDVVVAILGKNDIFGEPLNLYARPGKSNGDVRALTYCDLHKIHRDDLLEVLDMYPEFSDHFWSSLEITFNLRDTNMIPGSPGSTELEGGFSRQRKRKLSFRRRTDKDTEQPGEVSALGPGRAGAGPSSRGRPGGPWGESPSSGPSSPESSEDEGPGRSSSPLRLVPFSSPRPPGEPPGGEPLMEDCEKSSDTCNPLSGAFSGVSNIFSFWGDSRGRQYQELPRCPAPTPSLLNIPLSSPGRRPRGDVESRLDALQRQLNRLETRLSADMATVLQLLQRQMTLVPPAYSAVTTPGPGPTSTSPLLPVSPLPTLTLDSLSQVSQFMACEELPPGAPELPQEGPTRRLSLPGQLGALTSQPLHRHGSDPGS
Sequence of C-C chemokine receptor type 7 (Homo sapiens) (P32248 whole entry): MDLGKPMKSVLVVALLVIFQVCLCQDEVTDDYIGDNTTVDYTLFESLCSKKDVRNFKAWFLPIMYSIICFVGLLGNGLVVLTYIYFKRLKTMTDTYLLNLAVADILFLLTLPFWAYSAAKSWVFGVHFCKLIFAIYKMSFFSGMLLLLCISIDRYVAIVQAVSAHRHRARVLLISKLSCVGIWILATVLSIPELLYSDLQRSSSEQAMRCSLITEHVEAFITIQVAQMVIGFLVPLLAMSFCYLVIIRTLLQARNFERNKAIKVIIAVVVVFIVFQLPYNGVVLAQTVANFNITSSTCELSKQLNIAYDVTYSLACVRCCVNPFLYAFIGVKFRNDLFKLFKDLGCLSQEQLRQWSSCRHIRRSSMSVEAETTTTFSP

## CN(CCCCN(C[C@H]1Cc2ncccc2CN1)[C@H]1CCCc2cccnc21)C1CCC(F)(F)CC1
[1]
  remaining at 10 min: 61%
[2]
  Cmax: 169 ng/mL
[3]
  IC50: 0.024 µM
[4]
  Papp at 4 h: 31 ×10⁻⁶ cm/s
[5]
  remaining at 10 min: 8%
[6]
  CC50 at 4 h: > 10 µM
[7]
  IC50: > 10 µM
Mu-type opioid receptor
  IC50: > 30 µM
[8]
  IC50: > 30 µM
D(2) dopamine receptor
  IC50: > 30 µM
[9]
  IC50: > 30 µM
[10]
  IC50: > 30 µM
[11]
  IC50: 17 µM
[12]
  Cmax: 12.8 ng/mL
[13]
  concentration at 12 h: 34.8 ng/mL
[14]
  bioavailability: 12.9%
Cytochrome P450 2C19
  IC50: > 20 µM
Cytochrome P450 2C9
  IC50: > 20 µM
[15]
  selectivity ratio: > 1000
Homo sapiens [16]
  Selectivity Index: > 710
[17]
  inhibition: < 5%
[18]
  inhibition: < 5%
[19]
  inhibition: < 5%
[20]
  inhibition: < 5%
[21]
  inhibition: < 5%
[22]
  inhibition: < 5%
Homo sapiens [23]
  Selectivity Index: > 1000
Homo sapiens [24]
  Selectivity Index: > 1000
Homo sapiens [25]
  Selectivity Index: > 1000
Homo sapiens [26]
  Selectivity Index: > 1000
Homo sapiens [27]
  Selectivity Index: 540
Homo sapiens [28]
  Selectivity Index: > 710
Homo sapiens [29]
  Selectivity Index: > 710
Homo sapiens [30]
  Selectivity Index: > 710
